Among the data in US20070249620A1, “Urea Derivative” (priority 2004, published 2007) are inhibition and melting point values, retold here.

The target of one series is T1, mouse DGAT1 (Mus musculus, UniProt Q9Z2A7).
T1 construct: made in house; host or cells: insect cells (High Five, Sf9, Sf21, etc.), baculovirus expression system (Invitrogen)
T1 sequence (Q9Z2A7 1-498): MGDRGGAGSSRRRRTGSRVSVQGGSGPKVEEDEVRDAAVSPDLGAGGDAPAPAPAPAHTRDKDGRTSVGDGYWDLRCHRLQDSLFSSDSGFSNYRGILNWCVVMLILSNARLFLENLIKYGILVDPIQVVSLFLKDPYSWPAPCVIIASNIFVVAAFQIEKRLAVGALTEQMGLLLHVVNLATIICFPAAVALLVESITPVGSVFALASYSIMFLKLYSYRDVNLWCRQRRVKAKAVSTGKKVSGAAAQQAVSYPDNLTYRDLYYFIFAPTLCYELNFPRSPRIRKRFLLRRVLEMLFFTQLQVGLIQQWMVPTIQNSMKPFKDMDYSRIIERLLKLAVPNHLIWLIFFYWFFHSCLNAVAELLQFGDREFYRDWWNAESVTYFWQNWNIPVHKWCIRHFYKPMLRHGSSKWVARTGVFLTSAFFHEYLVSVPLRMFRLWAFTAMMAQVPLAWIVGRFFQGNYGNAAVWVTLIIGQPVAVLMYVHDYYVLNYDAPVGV
The experiment in a line: DGAT1 inhibitory effect test (microsome fraction, [14C]-oleoyl-CoA, triglyceride radioactivity by TLC). As to conditions: 0.5 h; concentration of the test compound 0.1 μg/ml; mouse DGAT1 microsomes, 23° C., 30 minutes; read-out: Inhibitory ratio. The class given is biochemical. In outline: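 Inhibition was scored from radiolabelled triglyceride separated by TLC, relative to vehicle and net of a 0-min background. The reaction ran for 30 min at room temperature (23 °C) in Tris-HCl pH 8.0 with MgCl2, BSA and Triton X-100. Substrates were 30 μM [14C]-oleoyl-CoA and 0.5 mM dioleoylglycerol, with mouse DGAT1 microsomes from baculovirus-infected insect cells as enzyme.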

`CCc1ccccc1NC(=O)Nc1ccc(N2CCN(C(=O)Nc3c(C)cccc3Cl)CC2)cc1` [Example 128, 4-{4-[3-(2-ethyl-phenyl)-ureido]-phenyl}-piperazine-1-carboxylic acid (2-chloro-6-methyl-phenyl)-amide] displayed a melting point of 217 to 219 °C. The inhibition at 0.1 µg/mL on mouse DGAT1 was at least 50%.
Compound `COc1ccc(C)cc1NC(=O)Nc1ccc(N2CCN(C(=O)Nc3ccc(Br)cc3Cl)CC2)cc1` [Example 129, 4-{4-[3-(2-methoxy-5-methyl-phenyl)-ureido]-phenyl}-piperazine-1-carboxylic acid (4-bromo-2-chloro-phenyl)-amide] returned a melting point of 140 to 142 °C. Also, the inhibition at 0.1 µg/mL at mouse DGAT1 is at least 50%.
`CCCc1ccccc1NC(=O)Nc1ccc(N2CCN(C(=O)Nc3c(C)cccc3Cl)CC2)cc1` [Example 130, 4-{4-[3-(2-propyl-phenyl)-ureido]-phenyl}-piperazine-1-carboxylic acid (2-chloro-6-methyl-phenyl)-amide] had a melting point of 216 to 217 °C. Moreover, the inhibition at 0.1 µg/mL at mouse DGAT1 is at least 50%.
`Cc1ccc(C)c(NC(=O)Nc2ccc(N3CCN(C(=O)Nc4c(C)cccc4Cl)CC3)cc2)c1` [Example 131, 4-{4-[3-(2,5-dimethyl-phenyl)-ureido]-phenyl}-piperazine-1-carboxylic acid (2-chloro-6-methyl-phenyl)-amide] registered a melting point of 251 to 253 °C. The inhibition at 0.1 µg/mL on mouse DGAT1 was at least 50%.
Taken in the same sequence, the figures for `COc1ccc(Cl)cc1NC(=O)Nc1ccc(N2CCN(C(=O)Nc3c(Cl)cccc3Cl)CC2)cc1` [Example 132, 4-{4-[3-(5-chloro-2-methoxy-phenyl)-ureido]-phenyl}-piperazine-1-carboxylic acid (2,6-dichloro-phenyl)-amide] were 189 to 190 °C and at least 50%.
Regarding `CCOc1ccccc1NC(=O)Nc1ccc(N2CCN(C(=O)Nc3c(Cl)cccc3Cl)CC2)cc1` [Example 133, 4-{4-[3-(2-ethoxy-phenyl)-ureido]-phenyl}-piperazine-1-carboxylic acid (2,6-dichloro-phenyl)-amide], the melting point lay in the range of 164 to 166 °C. At mouse DGAT1, the inhibition at 0.1 µg/mL was at least 50%.
The compound `CCOc1ccc(C)cc1NC(=O)Nc1ccc(N2CCN(C(=O)Nc3c(Cl)cccc3Cl)CC2)cc1` [Example 134, 4-{4-[3-(2-ethoxy-5-methyl-phenyl)-ureido]-phenyl}-piperazine-1-carboxylic acid (2,6-dichloro-phenyl)-amide] had a melting point of 159 to 161 °C. Moreover, the inhibition at 0.1 µg/mL at mouse DGAT1 was at least 50%.
Taken in the same sequence, the figures for `CCOc1ccc(Cl)cc1NC(=O)Nc1ccc(N2CCN(C(=O)Nc3c(Cl)cccc3Cl)CC2)cc1` [Example 135, 4-{4-[3-(5-chloro-2-ethoxy-phenyl)-ureido]-phenyl}-piperazine-1-carboxylic acid (2,6-dichloro-phenyl)-amide] were 135 to 137 °C and at least 50%.
The compound `COc1ccc(C)cc1NC(=O)Nc1ccc(N2CCN(C(=O)Nc3ccccc3C(F)(F)F)CC2)nc1` [Example 137, 4-{5-[3-(2-methoxy-5-methyl-phenyl)-ureido]-pyridin-2-yl}-piperazine-1-carboxylic acid (2-trifluoromethyl-phenyl)-amide] yielded a melting point of 213 to 214 °C. Further, on mouse DGAT1, the inhibition at 0.1 µg/mL was at least 50%.
Taken in the same sequence, the figures for `COc1ccc(C)cc1NC(=O)Nc1ccc(N2CCN(C(=O)Nc3c(C)cccc3C)CC2)nc1` [Example 138, 4-{5-[3-(2-methoxy-5-methyl-phenyl)-ureido]-pyridin-2-yl}-piperazine-1-carboxylic acid (2,6-dimethyl-phenyl)-amide] were 221 to 223 °C and at least 50%.
Compound `COc1ccc(C)cc1NC(=O)Nc1ccc(N2CCN(C(=O)Nc3c(F)cccc3C(F)(F)F)CC2)nc1` [Example 139, 4-{5-[3-(2-methoxy-5-methyl-phenyl)-ureido]-pyridin-2-yl}-piperazine-1-carboxylic acid (2-fluoro-6-trifluoromethyl-phenyl)-amide] showed a melting point of 221 to 222 °C. Further, the inhibition at 0.1 µg/mL at mouse DGAT1 was at least 50%.
Taken in the same sequence, the figures for `COc1ccc(C)cc1NC(=O)Nc1ccc(N2CCN(C(=O)Nc3c(Cl)cccc3Cl)CC2)nc1` [Example 140, 4-{5-[3-(2-methoxy-5-methyl-phenyl)-ureido]-pyridin-2-yl}-piperazine-1-carboxylic acid (2,6-dichloro-phenyl)-amide] were 222 to 224 °C and at least 50%.
As for `CCOc1ccccc1NC(=O)Nc1ccc(N2CCN(C(=O)Nc3c(C)cccc3Cl)CC2)nc1` [Example 141, 4-{5-[3-(2-ethoxy-phenyl)-ureido]-pyridin-2-yl}-piperazine-1-carboxylic acid (2-chloro-6-methyl-phenyl)-amide], the melting point was 185 to 186 °C. Besides, on mouse DGAT1, the inhibition at 0.1 µg/mL is at least 50%.
In turn, `CCOc1ccccc1NC(=O)Nc1ccc(N2CCN(C(=O)Nc3c(C)cccc3C)CC2)nc1` [Example 142, 4-{5-[3-(2-ethoxy-phenyl)-ureido]-pyridin-2-yl}-piperazine-1-carboxylic acid (2,6-dimethyl-phenyl)-amide] showed a melting point of 188 to 190 °C. Besides, at mouse DGAT1, the inhibition at 0.1 µg/mL is at least 50%.
Taken in the same sequence, the figures for `CCOc1ccccc1NC(=O)Nc1ccc(N2CCN(C(=O)Nc3c(F)cccc3C(F)(F)F)CC2)nc1` [Example 143, 4-{5-[3-(2-ethoxy-phenyl)-ureido]-pyridin-2-yl}-piperazine-1-carboxylic acid (2-fluoro-6-trifluoromethyl-phenyl)-amide] were 177 to 179 °C and at least 50%.
With `CCOc1ccccc1NC(=O)Nc1ccc(N2CCN(C(=O)Nc3c(Cl)cccc3Cl)CC2)nc1` [Example 144, 4-{5-[3-(2-ethoxy-phenyl)-ureido]-pyridin-2-yl}-piperazine-1-carboxylic acid (2,6-dichloro-phenyl)-amide], the melting point fell in the range of 170 to 172 °C. The inhibition at 0.1 µg/mL at mouse DGAT1 was at least 50%.
Taken in the same sequence, the figures for `CCOc1ccccc1NC(=O)Nc1ccc(N2CCN(C(=O)Nc3ccc(OC)cc3C)CC2)nc1` [Example 145, 4-{5-[3-(2-ethoxy-phenyl)-ureido]-pyridin-2-yl}-piperazine-1-carboxylic acid (4-methoxy-2-methyl-phenyl)-amide] were 166 to 168 °C and at least 50%.
Taken in the same sequence, the figures for `CCOc1ccccc1NC(=O)Nc1ccc(N2CCN(C(=O)Nc3ccc(C)cc3Cl)CC2)nc1` [Example 146, 4-{5-[3-(2-ethoxy-phenyl)-ureido]-pyridin-2-yl}-piperazine-1-carboxylic acid (2-chloro-4-methyl-phenyl)-amide] were 136 to 137 °C and at least 50%.
For `COc1ccc(C)cc1NC(=O)Nc1ccc(N2CCN(C(=O)Nc3ccc(C)cc3Cl)CC2)nc1` [Example 147, 4-{5-[3-(2-methoxy-5-methyl-phenyl)-ureido]-pyridin-2-yl}-piperazine-1-carboxylic acid (2-chloro-4-methyl-phenyl)-amide], the melting point lay within 214 to 215 °C. The inhibition at 0.1 µg/mL on mouse DGAT1 was at least 50%.
In the case of `COc1ccc(F)cc1NC(=O)Nc1ccc(N2CCN(C(=O)Nc3c(C)cccc3Cl)CC2)nc1` [Example 148, 4-{5-[3-(5-fluoro-2-methoxy-phenyl)-ureido]-pyridin-2-yl}-piperazine-1-carboxylic acid (2-chloro-6-methyl-phenyl)-amide], the melting point lay in the range of 227 to 228 °C. In addition, the inhibition at 0.1 µg/mL on mouse DGAT1 was at least 50%.
Taken in the same sequence, the figures for `COc1ccc(F)cc1NC(=O)Nc1ccc(N2CCN(C(=O)Nc3c(C)cccc3C)CC2)nc1` [Example 149, 4-{5-[3-(5-fluoro-2-methoxy-phenyl)-ureido]-pyridin-2-yl}-piperazine-1-carboxylic acid (2,6-dimethyl-phenyl)-amide] were 226 to 228 °C and at least 50%.
`COc1ccc(F)cc1NC(=O)Nc1ccc(N2CCN(C(=O)Nc3c(Cl)cccc3Cl)CC2)nc1` [Example 151, 4-{5-[3-(5-fluoro-2-methoxy-phenyl)-ureido]-pyridin-2-yl}-piperazine-1-carboxylic acid (2,6-dichloro-phenyl)-amide] yielded a melting point of 228 °C. The inhibition at 0.1 µg/mL on mouse DGAT1 is at least 50%.
Taken in the same sequence, the figures for `COc1ccc(C)cc1NC(=O)Nc1ccc(N2CCN(C(=O)Nc3c(F)cccc3F)CC2)nc1` [Example 152, 4-{5-[3-(2-methoxy-5-methyl-phenyl)-ureido]-pyridin-2-yl}-piperazine-1-carboxylic acid (2,6-difluoro-phenyl)-amide] were 237 to 239 °C and at least 50%.
`COc1ccc(NC(=O)N2CCN(c3ccc(NC(=O)Nc4cc(F)ccc4OC)cn3)CC2)c(C)c1` [Example 153, 4-{5-[3-(5-fluoro-2-methoxy-phenyl)-ureido]-pyridin-2-yl}-piperazine-1-carboxylic acid (4-methoxy-2-methyl-phenyl)-amide] gave a melting point of 212 to 214 °C. In addition, the inhibition at 0.1 µg/mL at mouse DGAT1 is at least 50%.

Broadly, the melting point is the temperature, or range, at which the solid turns liquid.
